# Test results as given in patent publication US12279615B2, “Wood preservative and method for producing same” (Koppers Performance Chemicals Inc., priority 2016, dated 2025).
# Experiments:
# [1] = Particle size of penflufen after milling with 1 mm zirconia; type: physicochemical; details: milled with 1 mm zirconia
# Description: The attainment of the injectable size, which generally requires both a d50 below 0.5 microns and a d98 less than three times the d50, was a surprising development. […] Milling a milling-resistant organic biocide, such as penflufen, with 1 mm zirconia provided a penflufen product with a d50 of 2 to 3 microns.
# Coniophora puteana = assay: Laboratory soil-block decay resistance test, AWPA Standard E10-2015, treated southern pine sapwood cubes; type: cell-based; details: micronized penflufen
# Description: (§1) The synergism was determined using a modified method as described by Kull et al. (Applied Microbiology, 1961 (9): 538-541). The modified method is described as below: QA/Qa+QB/Qb=SI • Where: • Qa=concentration of substance A alone which controls a particular decay fungus • Qb=concentration of substance B alone which controls a particular decay fungus • QA=concentration of substance A in the concentration of the A and B mixture at which controls a particular decay fungus • QB=concentration of substance B in the concentration of the A and B mixture at which controls a particular decay fungus • SI=1 means additivity • SI>1 means antagonism • SI<1 means synergism
# (§2) Wood cubes measuring 19 mm×19 mm×19 mm were prepared from southern pine sapwood. One set of wood cubes were pressured treated with serial treating solutions containing penflufen fungicide. A second set of wood cubes were pressure treated with treating solutions containing the copper fungicide. A third set of wood cubes were pressure treated with treating solutions containing a mixture of the copper and penflufen. The treated wood samples were exposed to various fungi to conduct a laboratory decay resistance test following protocols as described in American Wood Protection Association Standard E10-2015. Before and after exposure to fungi, the wood samples were weighed to determine the weight percent loss. No weight loss means complete control of the fungal attack.
# (§3) Wood cubes measuring 19 mm×19 mm×19 mm were prepared from southern pine sapwood. The wood cubes were pressure treated with treating solutions containing micronized penflufen. The treated wood samples were exposed to various fungi to conduct a laboratory decay resistance test following protocols as described in American Wood Protection Association Standard E10-2015. Before and after exposure to fungi, the wood samples were weighed to determine the weight percent loss.
# Fibroporia radiculosa = assay: as above; type: cell-based; details: micronized penflufen
# Description: as §1, §2, §3
# Postia placenta = assay: as above; type: cell-based; details: micronized penflufen
# Description: as §1, §2, §3
# Gloeophyllum trabeum = assay: as above; type: cell-based; details: micronized penflufen
# Description: as §1, §2, §3
compound,measurement,setting,value
"Cc1nn(C)c(F)c1C(=O)Nc1ccccc1C(C)CC(C)C (stereo not drawn) [Penflufen, penflufen]",d50,[1],2 to 3 microns
same,Mean Percent Weigh Loss of Treated Wood Cubes,Coniophora puteana; Penflufen Retention 8 g/m^3,1.4%
same,Mean Percent Weigh Loss of Treated Wood Cubes,Coniophora puteana; Penflufen Retention 12 g/m^3,1.6%
same,Mean Percent Weigh Loss of Treated Wood Cubes,Coniophora puteana; Penflufen Retention 16 g/m^3,1.6%
same,Mean Percent Weigh Loss of Treated Wood Cubes,Coniophora puteana; Penflufen Retention 24 g/m^3,1.5%
same,Mean Percent Weigh Loss of Treated Wood Cubes,Coniophora puteana; Penflufen Retention 32 g/m^3,1.1%
same,Mean Percent Weigh Loss of Treated Wood Cubes,Coniophora puteana; Penflufen Retention 48 g/m^3,1.4%
same,Mean Percent Weigh Loss of Treated Wood Cubes,Coniophora puteana; Penflufen Retention 64 g/m^3,2.0%
same,Mean Percent Weigh Loss of Treated Wood Cubes,Coniophora puteana; Penflufen Retention 80 g/m^3,1.3%
same,Mean Percent Weigh Loss of Treated Wood Cubes,Fibroporia radiculosa; Penflufen Retention 8 g/m^3,12.0%
same,Mean Percent Weigh Loss of Treated Wood Cubes,Fibroporia radiculosa; Penflufen Retention 12 g/m^3,10.4%
same,Mean Percent Weigh Loss of Treated Wood Cubes,Fibroporia radiculosa; Penflufen Retention 16 g/m^3,8.2%
same,Mean Percent Weigh Loss of Treated Wood Cubes,Fibroporia radiculosa; Penflufen Retention 24 g/m^3,8.2%
same,Mean Percent Weigh Loss of Treated Wood Cubes,Fibroporia radiculosa; Penflufen Retention 32 g/m^3,5.4%
same,Mean Percent Weigh Loss of Treated Wood Cubes,Fibroporia radiculosa; Penflufen Retention 48 g/m^3,5.7%
same,Mean Percent Weigh Loss of Treated Wood Cubes,Fibroporia radiculosa; Penflufen Retention 64 g/m^3,4.4%
same,Mean Percent Weigh Loss of Treated Wood Cubes,Fibroporia radiculosa; Penflufen Retention 80 g/m^3,3.0%
same,Mean Percent Weigh Loss of Treated Wood Cubes,Postia placenta; Penflufen Retention 8 g/m^3,3.5%
same,Mean Percent Weigh Loss of Treated Wood Cubes,Postia placenta; Penflufen Retention 12 g/m^3,1.9%
same,Mean Percent Weigh Loss of Treated Wood Cubes,Postia placenta; Penflufen Retention 16 g/m^3,2.1%
same,Mean Percent Weigh Loss of Treated Wood Cubes,Postia placenta; Penflufen Retention 24 g/m^3,1.2%
same,Mean Percent Weigh Loss of Treated Wood Cubes,Postia placenta; Penflufen Retention 32 g/m^3,1.2%
same,Mean Percent Weigh Loss of Treated Wood Cubes,Postia placenta; Penflufen Retention 48 g/m^3,1.1%
same,Mean Percent Weigh Loss of Treated Wood Cubes,Postia placenta; Penflufen Retention 64 g/m^3,1.1%
same,Mean Percent Weigh Loss of Treated Wood Cubes,Postia placenta; Penflufen Retention 80 g/m^3,1.3%
same,Mean Percent Weigh Loss of Treated Wood Cubes,Gloeophyllum trabeum; Penflufen Retention 8 g/m^3,3.1%
same,Mean Percent Weigh Loss of Treated Wood Cubes,Gloeophyllum trabeum; Penflufen Retention 12 g/m^3,2.9%
same,Mean Percent Weigh Loss of Treated Wood Cubes,Gloeophyllum trabeum; Penflufen Retention 16 g/m^3,3.6%
same,Mean Percent Weigh Loss of Treated Wood Cubes,Gloeophyllum trabeum; Penflufen Retention 24 g/m^3,3.0%
same,Mean Percent Weigh Loss of Treated Wood Cubes,Gloeophyllum trabeum; Penflufen Retention 32 g/m^3,3.5%
same,Mean Percent Weigh Loss of Treated Wood Cubes,Gloeophyllum trabeum; Penflufen Retention 48 g/m^3,3.0%
same,Mean Percent Weigh Loss of Treated Wood Cubes,Gloeophyllum trabeum; Penflufen Retention 64 g/m^3,1.6%
same,Mean Percent Weigh Loss of Treated Wood Cubes,Gloeophyllum trabeum; Penflufen Retention 80 g/m^3,2.0%
